Laboratory results as given in PubChem BioAssay AID1918958 (Molecular Pharmacology Branch, DTP, NCI, 2023).
“And” between values parts separate entries of the source, which are not always exact repeats. Equal values may be shown once.

Tested on: NCI-H196 complex spheroid viability
Experiment: Anticancer human tumor NCI-H196 cell line growth inhibition [LSD1];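 note: spheroids exposed to agents for 7 days before readout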;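 for viability, T/C: 100% = DMSO vehicle control viability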
Conditions: for viability, T/C: stronger effect = lower value
Outline: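 Multicellular complex spheroids of tumor cells with human endothelial cells (HUVEC) and mesenchymal stem cells; the LSD1 inhibitor iadademstat was combined with standard-of-care or investigational agents. Top concentration at or near clinical Cmax, half-log dilutions; final DMSO ≤0.25%.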

[1] = curve of first compound, second compound 0.1 µM
[2] = curve of first compound, second compound 0.316 µM
[3] = curve of first compound, second compound 1 µM
[4] = curve of first compound, second compound 3.16 µM
[5] = curve of first compound, second compound 10 µM

`O=C(C=Cc1cccc(S(=O)(=O)Nc2ccccc2)c1)NO` + NC1CCC(NC2CC2c2ccccc2)CC1 showed an IC50 [1] of 163 nM, an IC50 [2] of 139 nM and an IC50 [3] of 158 nM. It also gave an IC50 [4] of 145 nM, an IC50 [5] of 138 nM and a viability, T/C (second compound 0.1 µM, first compound 0.00949 µM) of 99.6%. It also gave a viability, T/C (second compound 0.1 µM, first compound 0.03 µM) of 103%, a viability, T/C (second compound 0.1 µM, first compound 0.0949 µM) of 75.4% and a viability, T/C (second compound 0.1 µM, first compound 0.3 µM) of 21.1%. For the same molecule, the viability, T/C (second compound 0.1 µM, first compound 0.949 µM) was 0.51%, the viability, T/C (second compound 0.1 µM, first compound 3 µM) was 0.44% and the viability, T/C (second compound 0.316 µM, first compound 0.00949 µM) was 93.9%. It also gave a viability, T/C (second compound 0.316 µM, first compound 0.03 µM) of 101%, a viability, T/C (second compound 0.316 µM, first compound 0.0949 µM) of 65.8% and a viability, T/C (second compound 0.316 µM, first compound 0.3 µM) of 16.7%. The viability, T/C (second compound 0.316 µM, first compound 0.949 µM) was 0.24%, the viability, T/C (second compound 0.316 µM, first compound 3 µM) was 1.63% and the viability, T/C (second compound 1 µM, first compound 0.00949 µM) was 94.5%. The viability, T/C (second compound 1 µM, first compound 0.03 µM) was 93.4%, the viability, T/C (second compound 1 µM, first compound 0.0949 µM) was 75.4% and the viability, T/C (second compound 1 µM, first compound 0.3 µM) was 18.4%. It also gave a viability, T/C (second compound 1 µM, first compound 0.949 µM) of 0.31%, a viability, T/C (second compound 1 µM, first compound 3 µM) of 0.36% and a viability, T/C (second compound 3.16 µM, first compound 0.00949 µM) of 96.9%. For the same molecule, the viability, T/C (second compound 3.16 µM, first compound 0.03 µM) was 92.3%, the viability, T/C (second compound 3.16 µM, first compound 0.0949 µM) was 68.5% and the viability, T/C (second compound 3.16 µM, first compound 0.3 µM) was 18.5%. For the same molecule, the viability, T/C (second compound 3.16 µM, first compound 0.949 µM) was 0.41%, the viability, T/C (second compound 3.16 µM, first compound 3 µM) was 0.27% and the viability, T/C (second compound 10 µM, first compound 0.00949 µM) was 88.8%. It also gave a viability, T/C (second compound 10 µM, first compound 0.03 µM) of 89.8%, a viability, T/C (second compound 10 µM, first compound 0.0949 µM) of 64.7% and a viability, T/C (second compound 10 µM, first compound 0.3 µM) of 18.6%. It also gave a viability, T/C (second compound 10 µM, first compound 0.949 µM) of 0.76% and a viability, T/C (second compound 10 µM, first compound 3 µM) of 0.84%.
With `CCN(c1cc(-c2ccc(CN3CCOCC3)cc2)cc(C(=O)NCc2c(C)cc(C)[nH]c2=O)c1C)C1CCOCC1` the viability, T/C (compound 0.00949 µM) was 95.5% and 97.5%, the viability, T/C (compound 0.03 µM) was 103% and 95.3% and the viability, T/C (compound 0.0949 µM) was 92.9% and 110%. For the same molecule, the viability, T/C (compound 0.3 µM) was 93.9% and 107%, the viability, T/C (compound 0.949 µM) was 101% and 113% and the viability, T/C (compound 3 µM) was 108% and 100%. For the same molecule, the IC50 (curve of compound) was > 3000 nM.
`COc1cc(Nc2ncc3c(n2)-c2ccc(Cl)cc2C(c2c(F)cccc2OC)=NC3)ccc1C(=O)O` + NC1CC1c1ccc(-c2cccc(O)c2)cc1 was tested, and the IC50 [1] was > 1000 nM, the IC50 [2] was > 1000 nM and the IC50 [3] was > 1000 nM. For the same molecule, the IC50 [4] was > 1000 nM, the IC50 [5] was > 1000 nM and the viability, T/C (second compound 0.1 µM, first compound 0.00316 µM) was 88.2%. For the same molecule, the viability, T/C (second compound 0.1 µM, first compound 0.01 µM) was 92.9%, the viability, T/C (second compound 0.1 µM, first compound 0.0316 µM) was 105% and the viability, T/C (second compound 0.1 µM, first compound 0.1 µM) was 104%. For the same molecule, the viability, T/C (second compound 0.1 µM, first compound 0.316 µM) was 121%, the viability, T/C (second compound 0.1 µM, first compound 1 µM) was 143% and the viability, T/C (second compound 0.316 µM, first compound 0.00316 µM) was 87.3%. For the same molecule, the viability, T/C (second compound 0.316 µM, first compound 0.01 µM) was 97.6%, the viability, T/C (second compound 0.316 µM, first compound 0.0316 µM) was 109% and the viability, T/C (second compound 0.316 µM, first compound 0.1 µM) was 113%. For the same molecule, the viability, T/C (second compound 0.316 µM, first compound 0.316 µM) was 120%, the viability, T/C (second compound 0.316 µM, first compound 1 µM) was 119% and the viability, T/C (second compound 1 µM, first compound 0.00316 µM) was 93%. It also gave a viability, T/C (second compound 1 µM, first compound 0.01 µM) of 115%, a viability, T/C (second compound 1 µM, first compound 0.0316 µM) of 118% and a viability, T/C (second compound 1 µM, first compound 0.1 µM) of 126%. For the same molecule, the viability, T/C (second compound 1 µM, first compound 0.316 µM) was 116%, the viability, T/C (second compound 1 µM, first compound 1 µM) was 118% and the viability, T/C (second compound 3.16 µM, first compound 0.00316 µM) was 98.5%. It also gave a viability, T/C (second compound 3.16 µM, first compound 0.01 µM) of 104%, a viability, T/C (second compound 3.16 µM, first compound 0.0316 µM) of 108% and a viability, T/C (second compound 3.16 µM, first compound 0.1 µM) of 110%. It also gave a viability, T/C (second compound 3.16 µM, first compound 0.316 µM) of 124%, a viability, T/C (second compound 3.16 µM, first compound 1 µM) of 112% and a viability, T/C (second compound 10 µM, first compound 0.00316 µM) of 98.3%. For the same molecule, the viability, T/C (second compound 10 µM, first compound 0.01 µM) was 114%, the viability, T/C (second compound 10 µM, first compound 0.0316 µM) was 112% and the viability, T/C (second compound 10 µM, first compound 0.1 µM) was 119%. The viability, T/C (second compound 10 µM, first compound 0.316 µM) was 125% and the viability, T/C (second compound 10 µM, first compound 1 µM) was 118%.
`NC1CC1c1ccc(-c2cccc(O)c2)cc1` (stereo not given) was tested, and the viability, T/C (compound 0.316 µM) was 95.9% [middle of 25 runs], the viability, T/C (compound 1 µM) was 97.8% [middle of 25 runs] and the IC50 (compound alone, run of 02/21/2022) was > 10000 nM.
